Test results reported in the NIST ThermoML archive (doi:10.1021/je5005752).
Numbers after ± are expanded uncertainties.

Assay: xn = mol fraction of the nth substance listed
Settings: 101 kPa, Liquid; for viscosity: Falling or rolling sphere viscometry; for mass density: Vibrating tube method

CCCC(=O)OCC [ethyl butanoate] + CCCCCCO
Settings	mass density [kg/m3]	viscosity [mPa·s]
288.15 K, x1 = 0.0997	828.32 ± 0.27	4.176 ± 0.091
288.15 K, x1 = 0.1998	834.25 ± 0.27	2.965 ± 0.065
288.15 K, x1 = 0.3002	840.39 ± 0.27	2.214 ± 0.048
288.15 K, x1 = 0.4	846.47 ± 0.27	1.735 ± 0.038
288.15 K, x1 = 0.5	852.62 ± 0.27	1.399 ± 0.031
288.15 K, x1 = 0.5998	858.84 ± 0.27	1.17 ± 0.026
288.15 K, x1 = 0.6999	865.11 ± 0.27	0.9966 ± 0.022
288.15 K, x1 = 0.7999	871.43 ± 0.27	0.8726 ± 0.019
288.15 K, x1 = 0.8998	877.77 ± 0.27	0.7818 ± 0.017
288.15 K, x1 = 1	884.16 ± 0.27	0.7224 ± 0.016
293.15 K, x1 = 0.0997	824.57 ± 0.27	3.6 ± 0.079
293.15 K, x1 = 0.1998	830.32 ± 0.27	2.6 ± 0.057
293.15 K, x1 = 0.3002	836.29 ± 0.27	1.97 ± 0.043
293.15 K, x1 = 0.4	842.19 ± 0.27	1.563 ± 0.034
293.15 K, x1 = 0.5	848.18 ± 0.27	1.274 ± 0.028
293.15 K, x1 = 0.5998	854.23 ± 0.27	1.075 ± 0.023
293.15 K, x1 = 0.6999	860.32 ± 0.27	0.9233 ± 0.02
293.15 K, x1 = 0.7999	866.48 ± 0.27	0.8142 ± 0.018
293.15 K, x1 = 0.8998	872.65 ± 0.27	0.7339 ± 0.016
293.15 K, x1 = 1	878.9 ± 0.27	0.6808 ± 0.015
298.15 K, x1 = 0.0997	820.8 ± 0.27	3.124 ± 0.068
298.15 K, x1 = 0.1998	826.39 ± 0.27	2.295 ± 0.05
298.15 K, x1 = 0.3002	832.17 ± 0.27	1.762 ± 0.038
298.15 K, x1 = 0.4	837.9 ± 0.27	1.414 ± 0.031
298.15 K, x1 = 0.5	843.72 ± 0.27	1.166 ± 0.025
298.15 K, x1 = 0.5998	849.59 ± 0.27	0.991 ± 0.022
298.15 K, x1 = 0.6999	855.52 ± 0.27	0.857 ± 0.019
298.15 K, x1 = 0.7999	861.51 ± 0.27	0.761 ± 0.017
298.15 K, x1 = 0.8998	867.52 ± 0.27	0.6898 ± 0.015
298.15 K, x1 = 1	873.62 ± 0.27	0.643 ± 0.014
303.15 K, x1 = 0.0997	817.02 ± 0.27	2.731 ± 0.06
303.15 K, x1 = 0.1998	822.43 ± 0.27	2.038 ± 0.044
303.15 K, x1 = 0.3002	828.03 ± 0.27	1.585 ± 0.035
303.15 K, x1 = 0.4	833.6 ± 0.27	1.286 ± 0.028
303.15 K, x1 = 0.5	839.24 ± 0.27	1.069 ± 0.023
303.15 K, x1 = 0.5998	844.95 ± 0.27	0.9185 ± 0.02
303.15 K, x1 = 0.6999	850.71 ± 0.27	0.7979 ± 0.017
303.15 K, x1 = 0.7999	856.53 ± 0.27	0.7129 ± 0.016
303.15 K, x1 = 0.8998	862.38 ± 0.27	0.6492 ± 0.014
303.15 K, x1 = 1	868.33 ± 0.27	0.6072 ± 0.013
308.15 K, x1 = 0.0997	813.22 ± 0.27	2.403 ± 0.052
308.15 K, x1 = 0.1998	818.46 ± 0.27	1.819 ± 0.04
308.15 K, x1 = 0.3002	823.88 ± 0.27	1.433 ± 0.031
308.15 K, x1 = 0.4	829.27 ± 0.27	1.174 ± 0.026
308.15 K, x1 = 0.5	834.75 ± 0.27	0.9852 ± 0.022
308.15 K, x1 = 0.5998	840.28 ± 0.27	0.8501 ± 0.019
308.15 K, x1 = 0.6999	845.88 ± 0.27	0.7452 ± 0.016
308.15 K, x1 = 0.7999	851.54 ± 0.27	0.6686 ± 0.015
308.15 K, x1 = 0.8998	857.23 ± 0.27	0.6113 ± 0.013
308.15 K, x1 = 1	863.02 ± 0.27	0.5736 ± 0.013
313.15 K, x1 = 0.0997	809.4 ± 0.27	2.124 ± 0.046
313.15 K, x1 = 0.1998	814.46 ± 0.27	1.631 ± 0.036
313.15 K, x1 = 0.3002	819.7 ± 0.27	1.3 ± 0.028
313.15 K, x1 = 0.4	824.92 ± 0.27	1.076 ± 0.023
313.15 K, x1 = 0.5	830.23 ± 0.27	0.9099 ± 0.02
313.15 K, x1 = 0.5998	835.6 ± 0.27	0.7898 ± 0.017
313.15 K, x1 = 0.6999	841.02 ± 0.27	0.6964 ± 0.015
313.15 K, x1 = 0.7999	846.52 ± 0.27	0.6277 ± 0.014
313.15 K, x1 = 0.8998	852.06 ± 0.27	0.5762 ± 0.013
313.15 K, x1 = 1	857.7 ± 0.27	0.5425 ± 0.012
318.15 K, x1 = 0.0997	805.54 ± 0.27	1.887 ± 0.041
318.15 K, x1 = 0.1998	810.43 ± 0.27	1.469 ± 0.032
318.15 K, x1 = 0.3002	815.5 ± 0.27	1.184 ± 0.026
318.15 K, x1 = 0.4	820.55 ± 0.27	0.9878 ± 0.022
318.15 K, x1 = 0.5	825.69 ± 0.27	0.8422 ± 0.018
318.15 K, x1 = 0.5998	830.89 ± 0.27	0.7355 ± 0.016
318.15 K, x1 = 0.6999	836.15 ± 0.27	0.652 ± 0.014
318.15 K, x1 = 0.7999	841.48 ± 0.27	0.5903 ± 0.013
318.15 K, x1 = 0.8998	846.86 ± 0.27	0.544 ± 0.012
318.15 K, x1 = 1	852.36 ± 0.27	0.5132 ± 0.011
323.15 K, x1 = 0.0997	801.66 ± 0.27	1.7 ± 0.037
323.15 K, x1 = 0.1998	806.38 ± 0.27	1.332 ± 0.029
323.15 K, x1 = 0.3002	811.27 ± 0.27	1.089 ± 0.024
323.15 K, x1 = 0.4	816.15 ± 0.27	0.9186 ± 0.02
323.15 K, x1 = 0.5	821.13 ± 0.27	0.788 ± 0.017
323.15 K, x1 = 0.5998	826.16 ± 0.27	0.6919 ± 0.015
323.15 K, x1 = 0.6999	831.25 ± 0.27	0.6147 ± 0.013
323.15 K, x1 = 0.7999	836.43 ± 0.27	0.5594 ± 0.012
323.15 K, x1 = 0.8998	841.64 ± 0.27	0.5176 ± 0.011
323.15 K, x1 = 1	847 ± 0.27	0.487 ± 0.011
